From patent US8846929B2, “Substituted-quinoxaline-type piperidine compounds and the uses thereof” (priority 2007, dated 2014)

target: human opioid receptor-like (ORL-1) (Homo sapiens (Human), UniProt P41146); test: In vitro ORL-1 receptor [35S]GTPγS functional assay; assay type: biochemical; conditions: not given
Sequence (P41146 whole entry): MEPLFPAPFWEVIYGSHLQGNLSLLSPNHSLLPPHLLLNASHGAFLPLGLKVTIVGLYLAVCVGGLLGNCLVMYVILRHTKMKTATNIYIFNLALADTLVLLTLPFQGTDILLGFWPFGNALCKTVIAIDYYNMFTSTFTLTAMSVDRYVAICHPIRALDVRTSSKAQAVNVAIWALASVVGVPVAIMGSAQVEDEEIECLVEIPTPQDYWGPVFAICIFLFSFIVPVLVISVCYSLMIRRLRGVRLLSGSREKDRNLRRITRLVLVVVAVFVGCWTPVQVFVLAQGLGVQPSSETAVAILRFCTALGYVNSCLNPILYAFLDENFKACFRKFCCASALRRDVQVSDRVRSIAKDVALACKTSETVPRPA

| Structure (SMILES) | EC50 |
| --- | --- |
| O=C(O)c1nc2ccccc2n(C2CC3CCCC(C2)N3C23CC4CC(CC2C4)C3)c1=O (stereo not drawn) [compound 263, 4-(9-(hexahydro-2,5-methano-pentalen-3a-yl)-9-aza-bicyclo[3.3.1]non-3-yl)-3-oxo-3,4-dihydro-quinoxaline-2-carboxylic acid] | 298 ± 26 nM |
| O=C(O)c1nc2ccccc2n([C@H]2C[C@H]3CC[C@@H](C2)N3C23CC4CC(CC2C4)C3)c1=O [compound 320] | 104 ± 7.8 nM |
| NC(=O)C1CCN(c2nc3ccccc3n(C3CCN(C4CCCCCCC4)CC3)c2=O)CC1 [compound 29] | 468 ± 81 nM |
| C=CCNc1nc2ccccc2n(C2CCN(C3CCCCCCC3)CC2)c1=O [compound 24, 3-(allylamino)-1-(1-cyclooctylpiperidin-4-yl)quinoxalin-2(1H)-one] | 611 ± 71 nM |
| O=c1c(N2CC[C@H](O)C2)nc2ccccc2n1C1CCN(C2CCCCCCC2)CC1 [compound 68] | 478 ± 6.4 nM |
| NC(=O)[C@@H]1CCCN1c1nc2ccccc2n(C2CCN(C3CCCCCCC3)CC2)c1=O [compound 42] | 543 ± 27 nM |
| O=c1c(N2Cc3ccccc3C2)nc2ccccc2n1C1CCN(C2CCCCCCC2)CC1 [compound 19, 1-(1-cyclooctylpiperidin-4-yl)-3-(isoindolin-2-yl)quinoxalin-2(1H)-one] | 286 ± 30 nM |
| COC(=O)C(CO)Nc1nc2ccccc2n(C2CCN(C3CCCCCCC3)CC2)c1=O (stereo not drawn) [compound 46] | 399 ± 56 nM |
| O=C(NOCc1ccccc1)c1nc2ccccc2n(C2CCN(C3CCCCCCC3)CC2)c1=O [compound 84] | 182 ± 22 nM |
| O=C(O)CN1CCN(c2nc3ccccc3n([C@H]3C[C@H]4CC[C@@H](C3)N4C3CCCCCCC3)c2=O)CC1 [compound 337, 2-(4-(4-((endo)-8-cyclooctyl-8-azabicyclo[3.2.1]octan-3-yl)-3-oxo-3,4-dihydroquinoxalin-2-yl)piperazin-1-yl)acetic acid] | 438 ± 15 nM |

target: delta opioid receptor (Homo sapiens (Human), UniProt P41143); test: In vitro delta-opioid receptor binding assay ([3H]-Naltrindole displacement); conditions: not given
Sequence (P41143 whole entry): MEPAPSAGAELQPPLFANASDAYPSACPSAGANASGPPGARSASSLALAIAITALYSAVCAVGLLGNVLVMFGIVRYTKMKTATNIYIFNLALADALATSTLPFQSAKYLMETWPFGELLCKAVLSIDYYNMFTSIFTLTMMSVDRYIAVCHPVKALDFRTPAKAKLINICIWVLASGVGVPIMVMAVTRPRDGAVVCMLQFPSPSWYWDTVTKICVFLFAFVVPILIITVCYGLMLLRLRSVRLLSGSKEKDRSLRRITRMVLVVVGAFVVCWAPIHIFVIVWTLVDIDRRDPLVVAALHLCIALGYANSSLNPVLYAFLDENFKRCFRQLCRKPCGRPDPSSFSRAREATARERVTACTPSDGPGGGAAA

| Structure (SMILES) | Ki |
| --- | --- |
| O=C(O)c1nc2ccccc2n(C2CC3CCCC(C2)N3C23CC4CC(CC2C4)C3)c1=O (stereo not drawn) [compound 263, 4-(9-(hexahydro-2,5-methano-pentalen-3a-yl)-9-aza-bicyclo[3.3.1]non-3-yl)-3-oxo-3,4-dihydro-quinoxaline-2-carboxylic acid] | 526000 nM |

system: FCA-induced inflammation of the rat hind paw; test: not given; conditions: in vivo

| Structure (SMILES) | maximum % reversal of thermal hyperalgesia |
| --- | --- |
| O=C(O)c1nc2ccccc2n([C@H]2C[C@H]3CCC[C@@H](C2)N3C2CCCCCCC2)c1=O [compound 241, 4-((endo)-9-cyclooctyl-9-azabicyclo[3.3.1]nonan-3-yl)-3-oxo-3,4-dihydroquinoxaline-2-carboxylic acid] | about 80% |
